Where a SMILES comes first, the peptide text is derived from it. The star is where a group is joined. Cbz = O=C(OCc1ccccc1)*; CH2F = FC*
Tests used:
human fetal neurons = test: Trypan blue uptake neurotoxicity assay in GrB-treated neuronal cultures; format: cell-based
Experimental: (§1) FIG. 8A-8B Protection against Granzyme B neurotoxicity by Kv1.3 inhibitors. Human fetal neuronal cultures were treated with GB (4 nM) in the presence or absence of various K channel blockers. (FIG. 8A) Cell viability was determined by staining with CYTOQUANT™ blue and the staining was quantitated by a plate reader. […] (FIG. 8B) Cell viability was determined by staining with trypan blue and the % of cells staining were counted which represent dead cells. A minimum of 500 cells was counted in each well and each treatment was done in triplicate.
Human fetal neurons were cultured as previously described (35). Briefly, human fetal brain specimens of 12-17 weeks gestation were obtained in accordance with NIH guidelines. The tissues were then triturated after removing the meninges. Cells were then cultured in T75 flasks in opti-MEM with 5% FBS, 0.5% N2 supplement and 1% antibiotics. Neurons were collected by carefully shaking the flask at least 1 month later. Cells were then seeded at 1×10^5/ml in 96 well plates for 1 week before treatment. These cultures contain 70-80% neurons, <5% microglia and the remaining cells are astrocytes as determined by immunostaining for microtubule associated antigen (MAP-2), CD68 and glial fibrillary acidic protein (GFAP) respectively.
For trypan blue uptake, neuronal cells were seeded at 1×10^5/ml and incubated for 1 week in 96-well plates before treatment. […] The cells were then stained with trypan blue for 5 min, washed with phosphate buffered saline, pH7.4 (PBS) and fixed with 4% paraformaldehyde. Trypan blue positive and negative cells were counted in three pre-determined fields. Approximately 200 cells were counted in each well. Each experiment was done in triplicate wells and mean and SEM were calculated from at least three independent experiments.

Kv1.3 [1] = test: Kv1.3 immunostaining in GB-treated neurons; format: cell-based, human; conditions: GB 4 nM, 16 hours
Experimental: FIG. 7A-7H. Expression of Kv1.3 on neurons and toxicity by Granzyme B. Human fetal neuronal cultures were treated with GB (4 nM; FIGS. 7E-7H) or control with no GB (FIGS. 7A-7D) and immunostained with antisera to beta-tubulin (red; FIGS. 7A and 7E) Kv1.3 (green; FIGS. 7C and 7G) and Hoechst (blue; FIGS. 7B and 7F), 16 hours following treatment. […] FIGS. 7D and 7H show merged images with immunostaining with both antisera and Hoechst.
Expression of voltage gated channel, Kv1.3, in neurons. We discovered that that similar to T cells small basal levels of Kv1.3 channel were expressed on neurons. […] Similar increases in Kv1.3 immunostaining in neurons were also noted upon treatment with supernatants from activated T cells (FIG. 7A-7H).

[2] = test system: Neuronal precursor cells (NPC); test: Caspase-3 activation in GrB-treated NPC cultures (Western-blot); format: cell-based; conditions: for effect on GB-induced caspase-3 activation: GrB 4 nM 24 hours, pretreatment PTX 100 ng/ml, ROCK-I 10 nM or MgTX 10 nM
[3] = test system: Human fetal neuron cultures; test: GrB neurotoxicity by caspase-3 activation and nuclear fragmentation; format: cell-based; conditions: recombinant GrB 0.5 to 4 nM
Experimental: Human fetal neuron cultures on cover slips were treated with GrB (1 nM) for 24 h. Caspase-3 and βIII tubulin expression in neurons was determined by immunocytochemistry. Briefly, cells were fixed with 4% paraformaldehyde for 5 min, and then blocked with 3% FBS in PBS for 20 min. Polyclonal caspase-3 antiserum (1:500) and monoclonal anti-BIII tubulin (1 μg/ml; Promega, Madison. WI) antibody were then applied and cover slips incubated overnight at 4° C. After washing with PBS, the cover slips were incubated with secondary antibodies (1:200 Donkey anti-rabbit IgG Alexa Fluor 594 and anti-mouse IgG Alexa Fluor 488, Molecular Probes, Eugene, Oreg.) for 2 h. Hochest 33258 (10 μM) was added at the last half an hour to stain the nucleus. The cells were imaged by confocal microscopy.
(§2) Recombinant GrB induces toxicity in neurons but not in astroglia. […] We next determined the effect of perform on GrB induced neurotoxicity. We used threshold toxic concentrations of perform (50 ng/ml) for these experiments. […] We next determined if the GrB mediated toxicity could also occur in astrocytes. Human astrocyte cultures were similarly treated with recombinant GrB (dose-1-4 nM) and monitored for neurotoxicity.

Kv1.3 [4] = test: Kv1.3 immunostaining in GrB-treated NPC; format: cell-based; conditions: GrB 4 nM, 24 hours
Experimental: FIG. 9A-9H. […] NPC cultures on cover slips were treated with GrB (4 nM; FIGS. 9B, 9D, 9F, and 9H) for 24 hours or controls without GrB (FIGS. 9A, 9C, 9E, and 9G). The cells were then fixed in 4% paraformaldehyde and immunostained with mAb against nestin (FIGS. 9A-9B) and polyclonal Ab against Kv1.3, followed by fluorescence-conjugated secondary Abs (FIGS. 9C-9D). Nuclei were stained with Hoechst 33342 (Calbiochem, 10 μM; FIGS. 9E-9F). The cells were imaged by confocal microscopy. As shown, more than 98% of the cells were positive for nestin and also moderately stained for Kv1.3 in the control cultures.

[5] = test system: Human fetal neuronal cultures; test: Cyclic AMP assay in neuronal cultures; format: cell-based; conditions: GrB 1 nM, 0-30 min
Experimental: Human fetal neuronal cultures were seeded at 5×10^5/ml in 12 well plates for 1 week before treatment. Cultures were then treated with GrB (1 nM) in Locke's buffer for 0-30 min. After removing the media the cells were treated with 100 μl of 0.1 M HCl for 10 min to achieve cell lysis. The lysate was centrifuged at 600 g for 10 min and the supernatant was used directly for the cyclic AMP assay. Cyclic AMP competitive ELISA kit (ENDOGEN, Rockford, Ill.) was used according to manufacturer's directions.

Primary neurons = test: Calcium imaging (Fura-2/AM) of cytosolic calcium in neurons; format: cell-based
Experimental: FIG. 4-4B. disrupts calcium homeostasis in neurons. Primary neurons were exposed to GrB for 30 min before imaging of intracellular calcium using Fura-2AM. (FIG. 4A). Resting levels of cytosolic calcium were increased by treatment with 1.0-100 nM GrB. (FIG. 4B). SDF-1α (10 μM) evoked increases of cytosolic calcium were increased by pre-treatment of neurons with 10 nM GrB. * P<0.001.
Cytosolic calcium ([Ca^2+]c) was determined using the ratiometric calcium probe Fura-2/AM using methods similar to those previously described (36). Cells were incubated in 2 μM Fura-2/AM for 20 min at 37° C. in media and washed with Locke's Buffer (154 mM NaCl, 3.6 mM NaHCO3, 5.6 mM KCl, 1 mM MgCl2, 5 mM HEPES, 2.3 mM CaCl2, 10 mM glucose; pH 7.4) to remove extracellular Fura-2/AM. Fura-2 loaded cells were placed into a open bath chamber and maintained at 37° C. (Series 20 open perfusion chamber and TC-344B temperature controller; Warner Instruments. Hamden, Conn.). Buffer flowed over the cells at the rate of ˜2 ml/min using a VC-6 perfusion control system with a multi-input manifold that minimized dead space, allowing for a rapid change between buffer and buffer containing drug. Cells were alternatively excited at 340 and 380 nm by a monochrometer and emission was recorded at 510 with software from Intracellular Imaging (Intracellular Imaging Inc., Cincinnati, Ohio.) […] ratios were converted to nM [Ca^2+]c using curve fitting software and calcium reference standards (Molecular Probes).

Human astrocyte cultures = format: cell-based; conditions: recombinant GrB 1-4 nM
Experimental: Enriched human fetal astroglia were cultured as previously described. Briefly, human fetal brain specimens of 12-17 weeks gestation were triturated after removal of the meninges. Cells were then cultured in T75 flasks in DMEM with 10% FBS and 1% antibiotics for at least 1 month. After shaking at 180 rpm for 1 h, cells were separated with trypsin/EDTA. Cells were then seeded at 1×10^5/ml in 96 well plates for 1 week before treatment. >95% of these cells were immunostained for GFAP.
as §2

[6] = test system: Human fetal neuronal cultures; test: CYTOQUANT blue cell viability, GB-treated neuronal cultures with K channel blockers; format: cell-based; conditions: GB 4 nM; CYTOQUANT blue staining, plate reader
Experimental: as §1

[7] = target: Kv1.3 channel (voltage-gated potassium channel) on human fetal neurons / neuronal precursor cells (human); test: cell-based or functional assay
[8] = test system: Neuronal precursor cells (NPC); test: Neuronal differentiation of NPC (βIII-tubulin / GFAP immunostaining); format: cell-based; conditions: MgTX 10 nM for 7 days in differentiating media
Experimental: FIG. 11. Kv1.3 specific blocker enhanced neuronal differentiation in NPC. NPC cultures were treated with (FIGS. 11D-11F) or without (FIGS. 11A-11C) Kv1.3 specific blocker MgTX (10 nM) for 7 days in differentiating media. The cells were then fixed in 4% paraformaldehyde and immunostained with mAb against neuron specific βIII-tubulin (FIGS. 11A, 11D) and polyclonal Ab against astrocyte specific GFAP (FIGS. 11B, 11E), followed by fluorescence-conjugated second Abs. The cells were observed and images were taken under confocal microscopy. […] FIGS. 11C and 11F show the merged images.

[9] = agent 10 μM added 1 h prior to GrB, trypan blue uptake 48 h later

CCC(C)(C)C(=O)C(=O)N1CCC[C@H]1C(=O)OCCCc1cccnc1 [GPI-1046, 3-(3-pyridyl)-1-propyl (2S)-1-(3,3-dimethyl-1,2-dioxopentyl)-2-pyrrollidinecarboxylate]
blocking of GrB-induced neurotoxicity (human fetal neurons; [9]): blocked GrB neurotoxicity

O=C[C@@H](O)[C@@H](O)[C@H](O)[C@H](O)COP(=O)(O)O [Mannose-6-phosphate, D-mannose 6-phosphate]
inhibition of GrB-induced neurotoxicity (human fetal neurons; pretreated with 10 mM mannose-6-phosphate, then GrB 1 nM, trypan blue uptake, 48 h): unable to inhibit GrB-induced neurotoxicity

COC(=O)C[C@H](NC(=O)[C@H](C)NC(=O)[C@@H](NC(=O)OCc1ccccc1)C(C)C)C(=O)CF [Z-VAD-fmk] (Cbz-Val-Ala-Asp(OMe)-CH2F)
blocking of GrB-induced neurotoxicity (human fetal neurons; [9]): significantly (P<0.05) blocked

Cc1c(C)c2c(c(C)c1O)CCC(C)(C(=O)O)O2 (stereo not drawn) [trolox]
blocking of GrB-induced neurotoxicity (human fetal neurons; [9]): blocked GrB neurotoxicity

GrB: 32-kDa serine protease of lymphocyte granules; recombinant GrB used
Kv1.3 channel expression in neurons (Kv1.3 [1]): increased expression of Kv1.3 channel in a subpopulation of cells
caspase-3 activation in NPC ([2]; GrB 4 nM, 24 hours): induced caspase-3 activation
minimum concentration needed to cause significant neurotoxicity [3]: 1 nM
Kv1.3 expression in NPC (Kv1.3 [4]): significant increase in Kv1.3 expression
cAMP levels [5]: significant decreases at 5 min
SDF-1α-evoked ER calcium release, peak increase (Primary neurons; cultures pre-treated with GrB (10 nM), SDF-1α): 1000 nM
resting [Ca2+]c (Primary neurons; higher dose of GrB, within 30 min): four fold
resting concentration of [Ca2+]c (Primary neurons; lowest concentration tested, 1 nM GrB, within 30 min): doubled
cell death in astrocyte cultures (Human astrocyte cultures): No evidence of cell death

MnTMPyP
blocking of GrB-induced neurotoxicity (human fetal neurons; [9]): significantly blocked the neurotoxicity

dendrotoxin
protection against GB neurotoxicity (cell viability, optical density) [6]: failed to protect against GB neurotoxicity

margatoxin (MgTX), Kv1.3 specific blocker (from UniProt P40755 1-39) (peptide)
protection of human fetal neurons against GB (4 nM) toxicity, trypan blue staining (% dead cells) [7]: 1 to 10 nM

margatoxin (TIINVKCTSPKQCLPPCKAQFGQSAGAKCMNGKCKCYPH) [Margotoxin]
effect on GB-induced caspase-3 activation [2]: attenuated GB-induced caspase-3 activation
concentration with significant protection against GB toxicity (human fetal neurons; GB 4 nM, trypan blue): 1 to 10 nM
protection against GB toxicity (% trypan blue stained cells) (human fetal neurons; GB 4 nM, trypan blue): protected against GB toxicity in a dose responsive manner
neuronal differentiation (βIII-tubulin positive cells and processes) [8]: increased the number of βIII-tubulin positive cells and processes per cell

pertussis toxin
effect on GB-induced caspase-3 activation [2]: attenuated GB-induced caspase-3 activation
blocking of GrB-induced neurotoxicity (human fetal neurons; 10 μM pertussis toxin, added 1 h prior to GrB, trypan blue uptake, 48 h): blocked

rTrtyustoxin: non-specific voltage gated K channel blocker (VFINAKCRGSPECLPKCKEAIGKAAGKCMNGKCKCYP)
protection against GB neurotoxicity (cell viability, optical density) [6]: protective

B1: perforin: human perforin, membrane disrupting protein of lymphocyte granules (protein, UniProt P14222 22-555, looked up)
Perforin-1: PCHTAARSECKRSHKFVPGAWLAGEGVDVTSLRRSGSFPVDTQRFLRPDGTCTLCENALQEGTLQRLPLALTNWRAQGSGCQRHVTRAKVSSTEAVARDAARSIRNDWKVGLDVTPKPTSNVHVSVAGSHSQAANFAAQKTHQDQYSFSTDTVECRFYSFHVVHTPPLHPDFKRALGDLPHHFNASTQPAYLRLISNYGTHFIRAVELGGRISALTALRTCELALEGLTDNEVEDCLTVEAQVNIGIHGSISAEAKACEEKKKKHKMTASFHQTYRERHSEVVGGHHTSINDLLFGIQAGPEQYSAWVNSLPGSPGLVDYTLEPLHVLLDSQDPRREALRRALSQYLTDRARWRDCSRPCPPGRQKSPRDPCQCVCHGSAVTTQDCCPRQRGLAQLEVTFIQAWGLWGDWFTATDAYVKLFFGGQELRTSTVWDNNNPIWSVRLDFGDVLLATGGPLRLQVWDQDSGRDDDLLGTCDQAPKSGSHEVRCNLNHGHLKFRYHARCLPHLGGGTCLDYVPQMLLGEPPGNRSGAVW
enhancement of GrB neurotoxicity (human fetal neurons; perforin 50 ng/ml combined with GrB 1 nM): enhancement was not statistically significant

Reference: US20100239562A1, “Kv CHANNELS IN NEURODEGENERATION AND NEUROPROTECTION” (priority 2006, published 2010)
